From PMC4970445, “Multiple active site residues are important for photochemical efficiency in the light-activated enzyme protochlorophyllide oxidoreductase (POR)^” (Journal of Photochemistry and Photobiology. B, Biology, 2016)

Key:
Assay in all cases: FRET from protein Trp to bound NADPH
Format in all cases: binding
[1] = target: T1, protochlorophyllide oxidoreductase (POR) (Thermosynechococcus vestitus, UniProt Q8DLC1)
T1 construct: recombinant, overexpressed in Escherichia coli, purified as in earlier work
Text: (§1) FRET from protein Trp to bound NADPH on protochlorophyllide oxidoreductase (POR)

[2] = target: T2, protochlorophyllide oxidoreductase (POR) (Thermosynechococcus vestitus, UniProt Q8DLC1, G19A)
T2 construct: recombinant, overexpressed in Escherichia coli, purified as in earlier work
Text: as §1

[3] = target: T3, protochlorophyllide oxidoreductase (POR) (Thermosynechococcus vestitus, UniProt Q8DLC1, K42A)
T3 construct: recombinant, overexpressed in Escherichia coli, purified as in earlier work
Text: as §1

[4] = target: T4, protochlorophyllide oxidoreductase (POR) (Thermosynechococcus vestitus, UniProt Q8DLC1, R38V)
T4 construct: recombinant, overexpressed in Escherichia coli, purified as in earlier work
Text: as §1

[5] = target: T5, protochlorophyllide oxidoreductase (POR) (Thermosynechococcus vestitus, UniProt Q8DLC1, S16C)
T5 construct: recombinant, overexpressed in Escherichia coli, purified as in earlier work
Text: as §1

[6] = target: T6, protochlorophyllide oxidoreductase (POR) (Thermosynechococcus vestitus, UniProt Q8DLC1, T230F)
T6 construct: recombinant, overexpressed in Escherichia coli, purified as in earlier work
Text: as §1

T1 sequence (Q8DLC1 1-322): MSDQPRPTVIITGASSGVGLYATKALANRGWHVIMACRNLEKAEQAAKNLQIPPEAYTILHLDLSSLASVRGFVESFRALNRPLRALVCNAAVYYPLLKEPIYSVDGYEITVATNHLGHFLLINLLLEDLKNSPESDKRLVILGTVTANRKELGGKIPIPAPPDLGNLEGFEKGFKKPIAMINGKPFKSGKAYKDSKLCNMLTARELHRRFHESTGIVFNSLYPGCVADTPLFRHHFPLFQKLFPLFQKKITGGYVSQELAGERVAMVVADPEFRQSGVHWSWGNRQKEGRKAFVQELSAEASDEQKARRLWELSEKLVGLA
T5 sequence (Q8DLC1 entry or part of it S16C): as the sequence (Q8DLC1 1-322) above, with S16C counted along it
T4 sequence (Q8DLC1 entry or part of it R38V): as the sequence (Q8DLC1 1-322) above, with R38V counted along it
T3 sequence (Q8DLC1 entry or part of it K42A): as the sequence (Q8DLC1 1-322) above, with K42A counted along it
T2 sequence (Q8DLC1 entry or part of it G19A): as the sequence (Q8DLC1 1-322) above, with G19A counted along it
T6 sequence (Q8DLC1 entry or part of it T230F): as the sequence (Q8DLC1 1-322) above, with T230F counted along it

Kd [1]: 21 ± 1 nM | Kd [2]: 182 ± 31 nM | Kd [3]: 230 ± 81 nM | Kd [4]: 411 ± 76 nM | Kd [5]: 325 ± 90 nM | Kd [6]: 436 ± 87 nM
SMILES: NC(=O)C1=CN([C@@H]2O[C@H](COP(=O)(O)OP(=O)(O)OC[C@H]3O[C@@H](n4cnc5c(N)ncnc54)[C@H](OP(=O)(O)O)[C@@H]3O)[C@@H](O)[C@H]2O)C=CC1 [NADPH]
